settings: not given

Row | melting point | Compound
1 | 131 to 133 °C | CN(C)CC(c1ccc(OC(=O)C(C)(C)C)cc1)C1(O)CCCCC1 (stereo not shown) [1a, 4-(2-(Dimethylamino)-1-(1-hydroxycyclohexyl)ethyl)phenyl pivalate]
2 | 180 to 182 °C | CN(C)CC(c1ccc(OC(=O)c2cccnc2)cc1)C1(O)CCCCC1 (stereo not shown) [1i, 4-(2-(Dimethylamino)-1-(1-hydroxycyclohexyl)ethyl)phenyl nicotinate]
3 | 118 to 122 °C | CN(C)CC(c1ccc(OC(=O)C=Cc2ccccc2)cc1)C1(O)CCCCC1 (stereo not shown) [1m, 4-(2-(Dimethylamino)-1-(1-hydroxycyclohexyl)ethyl)phenyl cinnamate]
4 | 124 to 127 °C | CN(C)CC(c1ccc(OC(=O)CCc2ccccc2)cc1)C1(O)CCCCC1 (stereo not shown) [1l, 4-(2-(Dimethylamino)-1-(1-hydroxycyclohexyl)ethyl)phenyl 3-phenylpropanoate]
5 | 149 to 152 °C | CC(C)C1CCC(C(=O)Oc2ccc(C(CN(C)C)C3(O)CCCCC3)cc2)CC1 (stereo not shown) [1d, 4-(2-(Dimethylamino)-1-(1-hydroxycyclohexyl)ethyl)phenyl 4-isopropylcyclohexanecarboxylate]
6 | 168 to 172 °C | CN(C)CC(c1ccc(OC(=O)c2ccsc2)cc1)C1(O)CCCCC1 (stereo not shown) [1h, 4-(2-(Dimethylamino)-1-(1-hydroxycyclohexyl)ethyl)phenyl thiophene-3-carboxylate]
7 | 159 to 162 °C | CN(C)CC(c1ccc(OC(=O)c2ccoc2)cc1)C1(O)CCCCC1 (stereo not shown) [1g, 4-(2-(Dimethylamino)-1-(1-hydroxycyclohexyl)ethyl)phenyl furan-3-carboxylate]
8 | 110 to 112 °C | CN(C)CC(c1ccc(OC(=O)C2CCCCCC2)cc1)C1(O)CCCCC1 (stereo not shown) [1e, 4-(2-(Dimethylamino)-1-(1-hydroxycyclohexyl)ethyl)phenyl cycloheptanecarboxylate]
9 | 157 to 159 °C | CC1CCC(C(=O)Oc2ccc(C(CN(C)C)C3(O)CCCCC3)cc2)CC1 (stereo not shown) [1c, 4-(2-(Dimethylamino)-1-(1-hydroxycyclohexyl)ethyl)phenyl 4-methylcyclohexanecarboxylate]
10 | 122 to 124 °C | CN(C)CC(c1ccc(OC(=O)C2CCCCC2)cc1)C1(O)CCCCC1 (stereo not shown) [1b, 4-(2-(Dimethylamino)-1-(1-hydroxycyclohexyl)ethyl)phenyl cyclohexanecarboxylate]
11 | 159 to 162 °C | CN(C)CC(c1ccc(OC(=O)c2ccc3c(c2)OCCO3)cc1)C1(O)CCCCC1 (stereo not shown) [1o, 4-(2-(Dimethylamino)-1-(1-hydroxycyclohexyl)ethyl)phenyl 2,3-dihydrobenzo[b][1,4]dioxine-6-carboxylate]
12 | 133 to 137 °C | COc1ccc(C(=O)Oc2ccc(C(CN(C)C)C3(O)CCCCC3)cc2)cc1 (stereo not shown) [1k, 4-(2-(Dimethylamino)-1-(1-hydroxycyclohexyl)ethyl)phenyl 4-methoxybenzoate]
13 | 154 to 157 °C | CN(C)CC(c1ccc(OC(=O)c2ccc3c(c2)OCO3)cc1)C1(O)CCCCC1 (stereo not shown) [1n, 4-(2-(Dimethylamino)-1-(1-hydroxycyclohexyl)ethyl)phenyl benzo[d][1,3]dioxole-5-carboxylate]

settings: cited from earlier work

Row | Compound | bioavailability in humans
14 | CN(C)CC(c1ccc(O)cc1)C1(O)CCCCC1 (stereo not shown) [ODV, O-Desmethylvenlafaxine] | ca. 80%

parameters: method as in PMID 23517291, PMID 23334675; settings: ODV as the succinate salt; cited from earlier work

Row | Compound | minimum effective dose
15 | CN(C)CC(c1ccc(O)cc1)C1(O)CCCCC1 (stereo not shown) [ODV, O-Desmethylvenlafaxine] | 50 mg/day

parameters: method as in PMID 21925241; settings: rat, oral administration; cited from earlier work

Row | Compound | relative bioavailability compared with ODV
16 | COc1ccc(C(=O)Oc2ccc(C(CN(C)C)C3(O)CCCCC3)cc2)cc1 (stereo not shown) [1k, 4-(2-(Dimethylamino)-1-(1-hydroxycyclohexyl)ethyl)phenyl 4-methoxybenzoate] | higher relative bioavailability than ODV

Source: publication PMC6270635, “Phenolic Esters of O-Desmethylvenlafaxine with Improved Oral Bioavailability and Brain Uptake” (Molecules, 2013)
